The values that follow come from US20260217711A1, “TRIAZOLOPYRIDINYL ETHER LINKED COMPOUNDS AS KINASE INHIBITORS” (Bristol-Myers Squibb Company, priority 2023, published 2026).

Structures are written as SMILES. Read-outs that look alike come from different tables or passages of the source.

What is called IC50 is the concentration that gives 50% inhibition.

The subject of data set [1] is MLKL phosphorylation (pMLKL) in HT29-L23 cells. Kind of data set: MLKL Phosphorylation High-Content Assay. The class given is cell-based. The conditions noted are these: necroptosis induced with human TNFα, SMAC mimetic and Z-VAD, 6 h, read-out: LE pMLKL HC IC50. The essentials: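 HT29-L23 cells incubated 6 h at 37° C before detection of phospho-MLKL by immunostaining with anti-phospho-MLKL antibody (1:1000 in PBS/0.1% BSA, overnight at 4° C). Readout by high-content imaging with compartmental image analysis.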

The target of data set [2] is T1, MDR1 P-glycoprotein (P-gp) (Homo sapiens, UniProt P08183).
T1 construct: host or cells: MDCK (MDCK-MDR1)
T1 sequence (P08183 whole entry): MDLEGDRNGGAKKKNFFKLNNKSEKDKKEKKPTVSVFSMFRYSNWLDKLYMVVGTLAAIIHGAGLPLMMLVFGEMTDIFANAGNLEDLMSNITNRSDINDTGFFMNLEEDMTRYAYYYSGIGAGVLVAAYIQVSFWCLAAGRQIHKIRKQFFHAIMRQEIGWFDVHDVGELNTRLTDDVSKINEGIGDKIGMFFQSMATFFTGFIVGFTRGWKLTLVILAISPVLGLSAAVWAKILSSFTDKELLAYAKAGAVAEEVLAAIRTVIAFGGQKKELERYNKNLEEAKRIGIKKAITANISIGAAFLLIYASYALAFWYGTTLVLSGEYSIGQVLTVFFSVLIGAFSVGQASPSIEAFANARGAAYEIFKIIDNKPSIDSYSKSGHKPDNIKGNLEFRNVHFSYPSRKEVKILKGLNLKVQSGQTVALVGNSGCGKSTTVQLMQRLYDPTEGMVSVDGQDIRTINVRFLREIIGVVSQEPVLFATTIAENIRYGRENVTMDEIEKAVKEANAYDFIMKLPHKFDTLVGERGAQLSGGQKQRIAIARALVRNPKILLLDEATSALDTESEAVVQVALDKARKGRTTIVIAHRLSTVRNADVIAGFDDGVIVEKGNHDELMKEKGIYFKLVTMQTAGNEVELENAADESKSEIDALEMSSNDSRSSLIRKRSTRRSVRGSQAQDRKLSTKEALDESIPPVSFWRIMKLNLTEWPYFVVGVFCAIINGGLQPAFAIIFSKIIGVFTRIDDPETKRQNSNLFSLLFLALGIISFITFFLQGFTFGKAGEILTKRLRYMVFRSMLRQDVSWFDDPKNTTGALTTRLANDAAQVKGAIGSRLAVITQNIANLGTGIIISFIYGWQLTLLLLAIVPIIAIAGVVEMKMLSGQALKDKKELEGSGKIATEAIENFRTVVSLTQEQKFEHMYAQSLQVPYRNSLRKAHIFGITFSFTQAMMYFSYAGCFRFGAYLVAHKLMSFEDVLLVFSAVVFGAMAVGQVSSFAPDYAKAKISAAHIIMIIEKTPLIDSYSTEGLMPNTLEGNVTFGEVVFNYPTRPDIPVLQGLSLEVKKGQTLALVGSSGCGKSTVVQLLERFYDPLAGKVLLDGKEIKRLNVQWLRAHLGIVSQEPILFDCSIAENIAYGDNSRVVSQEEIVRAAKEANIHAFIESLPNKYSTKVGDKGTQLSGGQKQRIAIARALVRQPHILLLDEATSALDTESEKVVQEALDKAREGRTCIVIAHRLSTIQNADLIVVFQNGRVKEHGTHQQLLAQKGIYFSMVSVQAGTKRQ
Kind of data set: Transporter assay, bi-directional transport, MDCK-MDR1 cells. The class given is in vitro ADME. The following applies: basolateral to apical / apical to basolateral, >2 = substrate; for efflux ratio at 2 h, 0.1 uM: human, MDCK-MDR1, 0.1 uM, read-out: PGP (efflux ratio); for PGP (efflux ratio): 0.1 uM, 2 hours. The protocol: (§1) Compounds were assessed as substrates of MDR1 P-glycoprotein (P-gp) and mouse Breast Cancer Resistance Protein (mBcrp) at 0.1 uM, for 2 hours, in bi-directional transport assays using recombinant MDCK cell lines as described previously (Feng et al. Drug Metabolism and Disposition 2008, Vol. 36:268-275). MDCK-MDR1 and MDCK-mBcrp cells were acquired from the National Institutes of Health (Bethesda, MID) and the Netherlands Cancer Institute respectively, and used under license agreement. Data are expressed as efflux ratios, where transport across the cell monolayer in the basolateral to apical direction is divided by transport in the apical to basolateral direction. Efflux ratios >2 indicate the test compound is a substrate of the transporter tested.

Data set [3] has as its target T2, mouse Breast Cancer Resistance Protein (mBcrp) (Mus musculus, UniProt Q7TMS5).
T2 construct: host or cells: MDCK (MDCK-mBcrp)
T2 sequence (Q7TMS5 1-657): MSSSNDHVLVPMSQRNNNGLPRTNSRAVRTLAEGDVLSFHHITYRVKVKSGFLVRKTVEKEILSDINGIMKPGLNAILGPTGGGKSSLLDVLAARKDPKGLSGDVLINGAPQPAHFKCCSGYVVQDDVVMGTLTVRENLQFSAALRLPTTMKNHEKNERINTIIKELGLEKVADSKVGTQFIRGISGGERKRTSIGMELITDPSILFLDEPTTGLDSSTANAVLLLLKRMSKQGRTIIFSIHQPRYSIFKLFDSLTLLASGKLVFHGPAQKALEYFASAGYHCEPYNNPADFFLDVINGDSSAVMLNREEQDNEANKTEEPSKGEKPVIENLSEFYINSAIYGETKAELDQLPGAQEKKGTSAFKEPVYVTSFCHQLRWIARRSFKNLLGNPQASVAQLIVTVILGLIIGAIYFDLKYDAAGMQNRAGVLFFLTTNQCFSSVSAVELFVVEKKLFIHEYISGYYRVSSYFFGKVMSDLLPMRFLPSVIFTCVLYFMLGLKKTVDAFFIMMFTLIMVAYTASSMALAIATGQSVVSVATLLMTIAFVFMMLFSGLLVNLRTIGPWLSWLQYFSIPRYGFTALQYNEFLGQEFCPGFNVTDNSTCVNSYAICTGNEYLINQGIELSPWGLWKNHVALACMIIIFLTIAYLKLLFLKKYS
Briefly: Transporter assay, bi-directional transport, MDCK-mBcrp cells. The following applies: basolateral to apical / apical to basolateral, >2 = substrate; for efflux ratio at 2 h, 0.1 uM: mouse, read-out: BCRP (efflux ratio); for BCRP (efflux ratio): 0.1 uM, 2 hours. Format: in vitro ADME. The protocol:
as §1

For a further data set, the system named is hWB. Kind of data set: hWB. The class given is cell-based. The conditions noted are these: printed as "hWB" value in the pMLKL IC50 column; no method given.

With `[2H]C([2H])(CC(F)(F)C(C)(O)c1ccc(F)cc1)Oc1cccc(-c2ccn3nc(N)nc3c2)c1F` (single isomer, unassigned) [Example 13, 5-(3-(2-amino-[1,2,4]triazolo[1,5-a]pyridin-7-yl)-2-fluorophenoxy)-3,3-difluoro-2-(4-fluorophenyl)pentan-5,5-d2-2-ol], the IC50 in data set [1] was determined as 0.1 nM. Besides, the efflux ratio at 2 h, 0.1 uM in data set [2] is 1.8; in data set [3], 3.9.

On to `CC(O)(c1ccc(F)cc1)C(F)(F)CCOc1c(Cl)ccc(-c2ccn3nc(N)nc3c2)c1F` (single isomer, unassigned) [Example 4, 5-(3-(2-amino-[1,2,4]triazolo[1,5-a]pyridin-7-yl)-6-chloro-2-fluorophenoxy)-3,3-difluoro-2-(4-fluorophenyl)pentan-2-ol], for which the IC50 in data set [1] turned out to be 0.5 nM. Also, the “PGP (efflux ratio)” value in data set [2] was 1.5. Moreover, in data set [3], the “BCRP (efflux ratio)” value turned out to be 1.7.

Turning to `CC(O)(c1ccccc1)C(F)(F)CCOc1c(F)ccc(-c2ccn3nc(N)nc3c2F)c1F` (single isomer, unassigned) [Example 38, 5-(3-(2-amino-8-fluoro-[1,2,4]triazolo[1,5-a]pyridin-7-yl)-2,6-difluorophenoxy)-3,3-difluoro-2-phenylpentan-2-ol], in data set [1] (Homo sapiens), the IC50 amounted to 0.3 nM. In addition, the figures for the efflux ratio at 2 h, 0.1 uM in data set [2] and in data set [3] were 2.1 and 5.1, respectively.

Consider `CC(O)(c1ccc(F)cc1)C(F)(F)CCOc1cccc(-c2ccn3nc(N)nc3c2)c1F` (single isomer, unassigned) [Example 2, 5-(3-(2-amino-[1,2,4]triazolo[1,5-a]pyridin-7-yl)-2-fluorophenoxy)-3,3-difluoro-2-(4-fluorophenyl)pentan-2-ol], for which the IC50 in data set [1] is 4 nM. The efflux ratio at 2 h, 0.1 uM in data set [2] was determined as 1.8; in data set [3], 6.2.

With `C[C@](O)(c1ccc(F)cc1)C(F)(F)CCOc1c(F)ccc(-c2ccn3nc(N)nc3c2)c1F` (single isomer, unassigned) [Example 49, 5-(3-(2-amino-[1,2,4]triazolo[1,5-a]pyridin-7-yl)-2,6-difluorophenoxy)-3,3-difluoro-2-(4-fluorophenyl)pentan-2-ol], the IC50 in data set [1] (Homo sapiens) turned out to be 34 nM. Also, the values for the efflux ratio at 2 h, 0.1 uM in data set [2] and in data set [3] were 1.5 and 4, respectively.

Take `[2H]C([2H])(CC(F)(F)C(C)(O)c1ccc(F)cc1)Oc1c(F)ccc(-c2ccn3nc(N)nc3c2)c1F` (single isomer, unassigned) [Example 15, 5-(3-(2-amino-[1,2,4]triazolo[1,5-a]pyridin-7-yl)-2,6-difluorophenoxy)-3,3-difluoro-2-(4-fluorophenyl)pentan-5,5-d2-2-ol]: in data set [1], the IC50 was 0.3 nM. The efflux ratio at 2 h, 0.1 uM in data set [2] was found to be 1.4; in data set [3], 2.9.

As for `CC(O)(c1ccc(F)cc1)C(F)(F)CCOc1c(F)c(F)cc(-c2ccn3nc(N)nc3c2)c1F` (single isomer, unassigned) [Example 30, 5-(3-(2-amino-[1,2,4]triazolo[1,5-a]pyridin-7-yl)-2,5,6-trifluorophenoxy)-3,3-difluoro-2-(4-fluorophenyl)pentan-2-ol], the efflux ratio at 2 h, 0.1 uM in data set [2] was determined as 2.5; in data set [3] it was 3. Also, in the data set on hWB, the IC50 stood at 8 nM.

For the molecule `CC(O)(c1ccc(F)cn1)C(F)(F)CCOc1c(F)ccc(-c2ccn3nc(N)nc3c2)c1F` (single isomer, unassigned) [Example 28, 5-(3-(2-amino-[1,2,4]triazolo[1,5-a]pyridin-7-yl)-2,6-difluorophenoxy)-3,3-difluoro-2-(5-fluoropyridin-2-yl)pentan-2-ol], in the data set with hWB, 82 nM corresponded to half-maximal inhibition (IC50).

As to `CC(O)(c1ccc(F)cc1)C(F)(F)CCOc1c(Cl)ccc(-c2ccn3nc(N)nc3c2)c1F` (single isomer, unassigned) [Example 52, 5-(3-(2-amino-[1,2,4]triazolo[1,5-a]pyridin-7-yl)-6-chloro-2-fluorophenoxy)-3,3-difluoro-2-(4-fluorophenyl)pentan-2-ol], in data set [1], the IC50 is 0.5 nM. Also, the efflux ratio at 2 h, 0.1 uM turned out to be 1.5 in data set [2] and 1.7 in data set [3].

Consider `CC(O)(c1ccc(F)cc1)C(F)(F)CCOc1ccc(Cl)c(-c2ccn3nc(N)nc3c2)n1` (single isomer, unassigned) [Example 80, 5-((6-(2-amino-[1,2,4]triazolo[1,5-a]pyridin-7-yl)-5-chloropyridin-2-yl)oxy)-3,3-difluoro-2-(4-fluorophenyl)pentan-2-ol], for which the IC50 in data set [1] came out at 6.8 nM. The efflux ratio at 2 h, 0.1 uM in data set [2] stood at 5.9; in data set [3], 5.6.

On to `CC(O)(c1ccccc1)C(F)(F)CCOc1c(F)ccc(-c2ccn3nc(N)nc3c2)c1F` (single isomer, unassigned) [Example 40, 5-(3-(2-amino-[1,2,4]triazolo[1,5-a]pyridin-7-yl)-2,6-difluorophenoxy)-3,3-difluoro-2-phenylpentan-2-ol], for which the IC50 in data set [1] amounted to 0.6 nM. Further, the efflux ratio at 2 h, 0.1 uM in data set [2] came out at 1.7; in data set [3], 4.8.

On to `CC(O)(c1ccc(F)cn1)C(F)(F)CCOc1c(Cl)ccc(-c2ccn3nc(N)nc3c2)c1F` (single isomer, unassigned) [Example 31, 5-(3-(2-amino-[1,2,4]triazolo[1,5-a]pyridin-7-yl)-6-chloro-2-fluorophenoxy)-3,3-difluoro-2-(5-fluoropyridin-2-yl)pentan-2-ol], for which the IC50 in data set [1] came to 2 nM. Moreover, the efflux ratio at 2 h, 0.1 uM was determined as 5.3 in data set [2] and 1.4 in data set [3].

For `C[C@@](O)(c1ccc(F)cc1)C(F)(F)CCOc1c(F)ccc(-c2ccn3nc(N)nc3c2)c1F` (single isomer, unassigned) [Example 50, 5-(3-(2-amino-[1,2,4]triazolo[1,5-a]pyridin-7-yl)-2,6-difluorophenoxy)-3,3-difluoro-2-(4-fluorophenyl)pentan-2-ol], in data set [1] (Homo sapiens), the IC50 was determined as 0.4 nM. Also, the efflux ratio at 2 h, 0.1 uM in data set [2] came out at 1.6; in data set [3], 2.4.

For the molecule `Cc1ccc(-c2ccn3nc(N)nc3c2)c(F)c1C(=O)NCC(F)(F)C(O)c1ccc(F)cc1` (stereo not drawn) [Example 30 from WO2022/086828, reference compound], the efflux ratio at 2 h, 0.1 uM in data set [2] amounted to 35; in data set [3], 43.

Regarding `Nc1nc2cc(-c3ccc(F)c(OCCC(F)(F)C(O)c4ccc(F)cn4)c3F)ccn2n1` (single isomer, unassigned) [Example 34, 4-(3-(2-amino-[1,2,4]triazolo[1,5-a]pyridin-7-yl)-2,6-difluorophenoxy)-2,2-difluoro-1-(5-fluoropyridin-2-yl)butan-1-ol], in data set [1] (Homo sapiens), the IC50 is 8 nM. The efflux ratio at 2 h, 0.1 uM in data set [2] is 2.4; in data set [3] it was 7.

For the molecule `CC(O)(c1ccc(F)cc1)C(F)(F)CCOc1cccc(-c2ccn3nc(N)nc3c2)c1F` (single isomer, unassigned) [Example 3, 5-(3-(2-amino-[1,2,4]triazolo[1,5-a]pyridin-7-yl)-2-fluorophenoxy)-3,3-difluoro-2-(4-fluorophenyl)pentan-2-ol], the IC50 in data set [1] was found to be 0.1 nM. In addition, the “PGP (efflux ratio)” value in data set [2] is 1.2. Moreover, in data set [3], the “BCRP (efflux ratio)” value is 3.4.
